Data reported in patent US20080234245A1, “Angiostatic Agents for Controlling Choroidal Neovascularisation After Ocular Surgery or Trauma” (priority 2004, published 2008).

Assays:
[1] = tested on: posterior segment neovascularization (NV); details: intravitreal injection, rat OIR model (Penn 2001); cited from earlier work
[2] = tested on: choroidal neovascularization (CNV) in C57BL/J mice; assay: Laser-induced choroidal neovascularization (CNV) in mice, rupture of Bruch's membrane; assay type: in vivo, mouse; details: for CNV versus vehicle-injected controls: single 5 μl intravitreal injection, 14 days post-laser
From the text: Choroidal neovascularization (CNV) was induced in C57BL/J mice by rupturing Bruch's membrane via focal laser photocoagulation (FIG. 3). (Tobe T, et al., AM. J. PATHOL., 153:1641-1646 (1998)). Three to four retinal burns were placed in randomly assigned eye using the Alcon 532 nm EyeLite laser (75 μm spot size, 0.1 seconds duration, 120 mW) with a slit lamp delivery system. The laser burns were used to generate a rupture in Bruch's membrane, which was indicated opthalmoscopically by the formation of a bubble under the retina. Only mice with laser burns that produced three bubbles per eye were included in the study. Burns were typically placed at the 3, 6, 9 or 12 o'clock positions in the posterior pole of the retina, avoiding the branch retinal arteries and veins.
Each mouse was randomly assigned into one of the following treatment groups after laser: noninjected controls, sham-injected controls, vehicle-injected mice, or one of three anecortave acetate-injected groups. Control mice received laser photocoagulation in both eyes, where one eye received a sham injection, i.e. a pars plana needle puncture. For intravitreal-injected animals, one laser-treated eye received a 5 μl intravitreal injection of 0%, 0.1%, 1%, or 10% anecortave acetate. The intravitreal injection was performed immediately after laser photocoagulation.
Fourteen days post-laser, all mice were euthanized and systemically perfused with fluorescein-labeled dextran. Eyes were then harvested and prepared as choroidal flat mounts, and the 2-dimensional CNV area was quantified with computerized digital analysis, (Mori K., et al., AM. J. PATHOL. 159:313-320 (2001)). The median CNV area/burn per mouse per treatment was used for statistical analysis; P≦0.05 was considered significant.

[3] = Clark 1999; cited from earlier work

CC(=O)OCC(=O)[C@@]1(O)CC[C@H]2[C@@H]3CCC4=CC(=O)CC[C@]4(C)C3=CC[C@@]21C [anecortave acetate, 4,9(11)-pregnadien-17α,21-diol-3,20-dione-21-acetate]
efficacy against posterior segment neovascularization (NV) [1]: reproducible efficacy | CNV versus vehicle-injected controls ([2]; 0.1% anecortave acetate): No difference | CNV versus vehicle-injected controls ([2]; 1% anecortave acetate): No difference | CNV development seen as hyperfluorescent area at the site of laser photocoagulation (FIG. 4) ([2]; 10% anecortave acetate versus controls, choroidal flat mounts, fluorescein-labeled dextran): gross reduction in CNV development | effect on laser-induced choroidal neovascularization (FIG. 5) ([2]; single intravitreal injection in the mouse): inhibits laser-induced choroidal neovascularization | conventional glucocorticoid (anti-inflammatory) or mineralocorticoid activity [3]: devoid of conventional glucocorticoid (anti-inflammatory) or mineralocorticoid activity
